System: MV-4-11 cells
Experiment: Gene expression microarray analysis (Affymetrix PrimeView) and GSEA
Type: cell-based, human
Set-up: RFU PODN (11730768_x_at) / Fold change /veh PODN (11730768_x_at) / RFU LINC00158 (11744669_a_at) / Fold change /veh LINC00158 (11744669_a_at) / RFU DUSP10 (11751237_a_at) / Fold change /veh DUSP10 (11751237_a_at) / RFU ID3 (11757404_x_at) / Fold change /veh ID3 (11757404_x_at) / RFU PLEKHG5 (11737974_s_at) / Fold change /veh PLEKHG5 (11737974_s_at) / RFU LRRC4B (11730491_at) / Fold change /veh LRRC4B (11730491_at) / RFU GIMAP4 (11747438_a_at) / Fold change /veh GIMAP4 (11747438_a_at) / RFU KRT8 (11758183_x_at) / Fold change /veh KRT8 (11758183_x_at) / RFU CNN1 (11734310_a_at) / Fold change /veh CNN1 (11734310_a_at) / RFU VPS37D (11726825_at) / Fold change /veh VPS37D (11726825_at) / RFU C10orf10 (11716522_x_at) / Fold change /veh C10orf10 (11716522_x_at) / RFU KIR2DL2 /// KIR2DL4 /// KIR2DL5A /// KIR2DL5B /// KIR2DS1 /// KIR2DS2 /// KIR2DS3 /// KIR2DS4 /// KIR3DL3 /// KIR3DL3 /// KIR3DS1 (11738374_at) / Fold change /veh KIR2DL2 /// KIR2DL4 /// KIR2DL5A /// KIR2DL5B /// KIR2DS1 /// KIR2DS2 /// KIR2DS3 /// KIR2DS4 /// KIR3DL3 /// KIR3DL3 /// KIR3DS1 (11738374_at) / RFU C1QL1 (11718748_at) / Fold change /veh C1QL1 (11718748_at) / RFU TMPRSS4 (11747572_a_at) / Fold change /veh TMPRSS4 (11747572_a_at) / RFU HAMP (11756126_x_at) / Fold change /veh HAMP (11756126_x_at) / RFU RNFT2 (11725882_a_at) / Fold change /veh RNFT2 (11725882_a_at) / RFU NR4A2 (11747474_a_at) / Fold change /veh NR4A2 (11747474_a_at) / RFU ABCC12 (11746883_a_at) / Fold change /veh ABCC12 (11746883_a_at) / RFU TMEM136 (11760407_x_at) / Fold change /veh TMEM136 (11760407_x_at) / RFU CLDN22 /// WWC2 (11732394_at) / Fold change /veh CLDN22 /// WWC2 (11732394_at) / RFU HLA-DPB1 (11760878_x_at) / Fold change /veh HLA-DPB1 (11760878_x_at) / RFU SPINT1 (11716480_a_at) / Fold change /veh SPINT1 (11716480_a_at) / RFU GAP43 (11754022_s_at) / Fold change /veh GAP43 (11754022_s_at) / RFU A4GNT (11735810_at) / Fold change /veh A4GNT (11735810_at) / RFU PRB3 (11715151_x_at) / Fold change /veh PRB3 (11715151_x_at) / RFU TUBB4B (11761932_at) / Fold change /veh TUBB4B (11761932_at) / RFU CAPN14 (11732068_a_at) / Fold change /veh CAPN14 (11732068_a_at) / RFU TMCC2 (11721928_a_at) / Fold change /veh TMCC2 (11721928_a_at) / RFU IRGQ (11745062_a_at) / Fold change /veh IRGQ (11745062_a_at) / RFU FAM174B (11720279_a_at) / Fold change /veh FAM174B (11720279_a_at) / RFU TMPRSS4 (11748680_a_at) / Fold change /veh TMPRSS4 (11748680_a_at) / RFU FAM212B (11763350_a_at) / Fold change /veh FAM212B (11763350_a_at) / RFU PLEKHG5 (11743358_a_at) / Fold change /veh PLEKHG5 (11743358_a_at) / RFU ZSCAN30 (11745921_a_at) / Fold change /veh ZSCAN30 (11745921_a_at) / RFU CMKLR1 (11741424_a_at) / Fold change /veh CMKLR1 (11741424_a_at) / RFU LOC101060620 /// MAPK8IP1 (11723275_at) / Fold change /veh LOC101060620 /// MAPK8IP1 (11723275_at) / RFU SPTSSB (11747773_x_at) / Fold change /veh SPTSSB (11747773_x_at) / RFU PRSS12 (11739890_at) / Fold change /veh PRSS12 (11739890_at) / RFU BIN1 (11741810_x_at) / Fold change /veh BIN1 (11741810_x_at) / RFU WNT11 (11732464_a_at) / Fold change /veh WNT11 (11732464_a_at) / RFU C10orf10 (11716521_a_at) / Fold change /veh C10orf10 (11716521_a_at) / RFU C5orf56 (11738089_at) / Fold change /veh C5orf56 (11738089_at) / RFU CYB561 (11721691_x_at) / Fold change /veh CYB561 (11721691_x_at) / RFU ANKRD19P (11752326_a_at) / Fold change /veh ANKRD19P (11752326_a_at) / RFU OR2T12 /// OR2T33 /// OR2T8 (11738714_s_at) / Fold change /veh OR2T12 /// OR2T33 /// OR2T8 (11738714_s_at) / RFU VCAN (11748164_a_at) / Fold change /veh VCAN (11748164_a_at) / RFU JSRP1 (11732532_at) / Fold change /veh JSRP1 (11732532_at) / RFU KRTAP10-11 (11738290_x_at) / Fold change /veh KRTAP10-11 (11738290_x_at) / RFU MYO3A (11730013_a_at) / Fold change /veh MYO3A (11730013_a_at) / RFU EBF3 (11725865_a_at) / Fold change /veh EBF3 (11725865_a_at) / RFU CAMK2N1 (11719241_x_at) / Fold change /veh CAMK2N1 (11719241_x_at) / RFU C5orf56 (11738088_a_at) / Fold change /veh C5orf56 (11738088_a_at) / RFU OLFML3 (11715873_a_at) / Fold change /veh OLFML3 (11715873_a_at) / RFU LOC100653217 /// NTM (11731650_a_at) / Fold change /veh LOC100653217 /// NTM (11731650_a_at) / RFU MAPK11 (11762145_a_at) / Fold change /veh MAPK11 (11762145_a_at) / RFU FIZ1 (11724087_x_at) / Fold change /veh FIZ1 (11724087_x_at) / RFU OASL (11726364_x_at) / Fold change /veh OASL (11726364_x_at) / RFU SOX15 (11748057_x_at) / Fold change /veh SOX15 (11748057_x_at) / RFU CD79A (11719716_a_at) / Fold change /veh CD79A (11719716_a_at) / RFU HIST1H1D (11736915_at) / Fold change /veh HIST1H1D (11736915_at) / RFU CASKIN2 (11723855_a_at) / Fold change /veh CASKIN2 (11723855_a_at) / RFU LOC730098 (11760151_x_at) / Fold change /veh LOC730098 (11760151_x_at) / RFU OR4N2 (11742367_at) / Fold change /veh OR4N2 (11742367_at) / RFU PRRT2 (11749266_a_at) / Fold change /veh PRRT2 (11749266_a_at) / RFU SNX32 (11753110_a_at) / Fold change /veh SNX32 (11753110_a_at) / RFU CDHR5 (11726645_a_at) / Fold change /veh CDHR5 (11726645_a_at) / RFU RCAN1 (11760418_a_at) / Fold change /veh RCAN1 (11760418_a_at) / RFU FAM167A (11723789_a_at) / Fold change /veh FAM167A (11723789_a_at) / RFU FAM26E (11764081_at) / Fold change /veh FAM26E (11764081_at) / RFU ISYNA1 (11749810_s_at) / Fold change /veh ISYNA1 (11749810_s_at) / RFU ACY1 (11761880_at) / Fold change /veh ACY1 (11761880_at) / RFU 11764098_at / Fold change /veh 11764098_at / RFU SAMD14 (11745864_x_at) / Fold change /veh SAMD14 (11745864_x_at) / RFU NPB (11741838_a_at) / Fold change /veh NPB (11741838_a_at) / RFU TMPRSS6 (11731388_a_at) / Fold change /veh TMPRSS6 (11731388_a_at) / RFU KRTAP10-2 (11738614_at) / Fold change /veh KRTAP10-2 (11738614_at) / RFU ARHGAP8 /// PRR5-ARHGAP8 (11727945_x_at) / Fold change /veh ARHGAP8 /// PRR5-ARHGAP8 (11727945_x_at) / RFU KRTAP5-7 /// NADSYN1 (11734609_at) / Fold change /veh KRTAP5-7 /// NADSYN1 (11734609_at) / RFU RASL12 (11751679_a_at) / Fold change /veh RASL12 (11751679_a_at) / RFU CDKN2B (11736163_a_at) / Fold change /veh CDKN2B (11736163_a_at) / RFU PRF1 (11729649_at) / Fold change /veh PRF1 (11729649_at) / RFU, ZNF638 /// ZNF638-IT1 / Fold change vs veh, ZNF638 /// ZNF638-IT1 / RFU, PANK3 / Fold change vs veh, PANK3 / RFU, SH3YL1 / Fold change vs veh, SH3YL1 / RFU, ZEB2 / Fold change vs veh, ZEB2 / RFU, NRIP1 / Fold change vs veh, NRIP1 / RFU, PTTG1IP / Fold change vs veh, PTTG1IP / RFU, CAPN2 / Fold change vs veh, CAPN2 / RFU, MED14 / Fold change vs veh, MED14 / RFU, SNORA58 / Fold change vs veh, SNORA58 / RFU, C1orf63 / Fold change vs veh, C1orf63 / RFU, LRRFIP1 / Fold change vs veh, LRRFIP1 / RFU, NDUFAF7 / Fold change vs veh, NDUFAF7 / RFU, SLC12A2 / Fold change vs veh, SLC12A2 / RFU, IBTK / Fold change vs veh, IBTK / RFU, ESF1 / Fold change vs veh, ESF1 / Fold change vs veh, TMEM50B / RFU, TAOK1 / Fold change vs veh, TAOK1 / RFU, ACBD3 / Fold change vs veh, ACBD3 / RFU, TMA16 / Fold change vs veh, TMA16 / RFU, RWDD3 / Fold change vs veh, RWDD3 / RFU, BCAT1 / Fold change vs veh, BCAT1 / RFU, EDEM3 / Fold change vs veh, EDEM3 / RFU, TMEM33 / Fold change vs veh, TMEM33 / RFU, WDR75 / Fold change vs veh, WDR75 / RFU, AHCTF1 / Fold change vs veh, AHCTF1 / RFU, TFRC / Fold change vs veh, TFRC / RFU, ZDHHC17 / Fold change vs veh, ZDHHC17 / RFU, NOM1 / Fold change vs veh, NOM1 / RFU, ARL8B / Fold change vs veh, ARL8B / RFU, ZBTB11 / Fold change vs veh, ZBTB11 / RFU, TAMM41 / Fold change vs veh, TAMM41 / RFU, KIAA1704 /// LOC100996395 / Fold change vs veh, KIAA1704 /// LOC100996395 / RFU, ING1 / Fold change vs veh, ING1 / RFU, TRMT61B / Fold change vs veh, TRMT61B / RFU, FUBP3 / Fold change vs veh, FUBP3 / RFU, TP53 / Fold change vs veh, TP53 / RFU, TNKS2 / Fold change vs veh, TNKS2 / RFU, ZFP14 / Fold change vs veh, ZFP14 / RFU, ACTR2 / Fold change vs veh, ACTR2 / RFU, PPP3R1 / Fold change vs veh, PPP3R1 / RFU, PIK3R1 / Fold change vs veh, PIK3R1 / RFU, HNRNPA1 / Fold change vs veh, HNRNPA1 / RFU, RNF170 / Fold change vs veh, RNF170 / RFU, ZNF28 / Fold change vs veh, ZNF28 / RFU, RNGTT / Fold change vs veh, RNGTT / RFU, OGT / Fold change vs veh, OGT / RFU, BRD1 / Fold change vs veh, BRD1 / RFU, MARS / Fold change vs veh, MARS / RFU, ZNF655 / Fold change vs veh, ZNF655 / RFU, FAHD1 / Fold change vs veh, FAHD1 / RFU, BDP1 / Fold change vs veh, BDP1 / RFU, LRRCC1 / Fold change vs veh, LRRCC1 / RFU, ARID1A / Fold change vs veh, ARID1A / RFU, ZNF146 / Fold change vs veh, ZNF146 / RFU, ZNF330 / Fold change vs veh, ZNF330 / RFU, GPN3 / Fold change vs veh, GPN3 / RFU, C9orf123 / Fold change vs veh, C9orf123 / RFU, N4BP2L2 / Fold change vs veh, N4BP2L2 / RFU, ARFIP1 / Fold change vs veh, ARFIP1 / RFU, FAM179B / Fold change vs veh, FAM179B / RFU, BCL10 / Fold change vs veh, BCL10 / RFU, UHRF1BP1L / Fold change vs veh, UHRF1BP1L / RFU, BET1 / Fold change vs veh, BET1 / RFU, CNOT2 / Fold change vs veh, CNOT2 / RFU, ZNF268 / Fold change vs veh, ZNF268 / Fold change vs veh, ZNF507 / RFU, DGCR2 / Fold change vs veh, DGCR2 / RFU, WDSUB1 / Fold change vs veh, WDSUB1 / Fold change vs veh, HSP90B1 /// MIR3652 / RFU, ADSS / Fold change vs veh, ADSS / RFU, GK / Fold change vs veh, GK / RFU, ZNF148 / Fold change vs veh, ZNF148 / RFU, TAF9 / Fold change vs veh, TAF9 / RFU, SLC1A5 / Fold change vs veh, SLC1A5 / RFU, SLMO2 / Fold change vs veh, SLMO2 / RFU, ABCC4 / Fold change vs veh, ABCC4 / RFU, LOC101060439 /// RAP1B / Fold change vs veh, LOC101060439 /// RAP1B / RFU, RFX7 / Fold change vs veh, RFX7 / RFU, GTPBP10 / Fold change vs veh, GTPBP10 / RFU, CNEP1R1 / Fold change vs veh, CNEP1R1 / RFU, BIVM-ERCC5 /// ERCC5 / Fold change vs veh, BIVM-ERCC5 /// ERCC5 / RFU, ILF3 / Fold change vs veh, ILF3 / RFU 11762660_at / Fold change /veh 11762660_at / RFU VCAN (11757783_s_at) / Fold change /veh VCAN (11757783_s_at) / RFU DDX43 (11728927_at) / Fold change /veh DDX43 (11728927_at) / RFU KRT8 (11758188_x_at) / Fold change /veh KRT8 (11758188_x_at) / RFU NKD1 (11759106_at) / Fold change /veh NKD1 (11759106_at) / RFU SRD5A1 (11742802_a_at) / Fold change /veh SRD5A1 (11742802_a_at) / RFU TPSAB1 /// TPSB2 (11721975_s_at) / Fold change /veh TPSAB1 /// TPSB2 (11721975_s_at) / RFU GSTM3 (11746129_a_at) / Fold change /veh GSTM3 (11746129_a_at) / RFU IL23R (11737362_x_at) / Fold change /veh IL23R (11737362_x_at) / RFU TMEM51 (11727254_a_at) / Fold change /veh TMEM51 (11727254_a_at) / RFU PIWIL2 (11732686_x_at) / Fold change /veh PIWIL2 (11732686_x_at) / RFU ORM1 (11744905_x_at) / Fold change /veh ORM1 (11744905_x_at) / RFU CCDC152 (11743942_at) / Fold change /veh CCDC152 (11743942_at) / RFU ECM1 (11717891_a_at) / Fold change /veh ECM1 (11717891_a_at) / RFU IL23R (11748794_a_at) / Fold change /veh IL23R (11748794_a_at) / RFU TNFAIP8L3 (11732012_x_at) / Fold change /veh TNFAIP8L3 (11732012_x_at) / RFU MBOAT4 (11741988_at) / Fold change /veh MBOAT4 (11741988_at) / RFU 11764193_at / Fold change /veh 11764193_at / RFU TMEM53 (11763286_at) / Fold change /veh TMEM53 (11763286_at) / RFU MAGEB2 (11727129_at) / Fold change /veh MAGEB2 (11727129_at) / RFU TMEM200A (11744735_a_at) / Fold change /veh TMEM200A (11744735_a_at) / RFU CCDC152 (11751479_a_at) / Fold change /veh CCDC152 (11751479_a_at) / RFU FAM211A (11726209_a_at) / Fold change /veh FAM211A (11726209_a_at) / RFU RGS16 (11746705_a_at) / Fold change /veh RGS16 (11746705_a_at) / RFU VCAN (11755009_s_at) / Fold change /veh VCAN (11755009_s_at) / RFU RHOB (11743442_s_at) / Fold change /veh RHOB (11743442_s_at) / RFU RGS16 (11720943_a_at) / Fold change /veh RGS16 (11720943_a_at) / RFU RGS16 (11720944_at) / Fold change /veh RGS16 (11720944_at) / RFU, VPS4B / Fold change vs veh, VPS4B / RFU, CREB1 / Fold change vs veh, CREB1 / RFU, DNAJC13 / Fold change vs veh, DNAJC13 / RFU, GNAQ / Fold change vs veh, GNAQ / RFU, CDK5R1 / Fold change vs veh, CDK5R1 / RFU, ZRANB3 / Fold change vs veh, ZRANB3 / RFU, CUL4A / Fold change vs veh, CUL4A / RFU, CCNY / Fold change vs veh, CCNY / RFU, UFL1 / Fold change vs veh, UFL1 / RFU, COG3 / Fold change vs veh, COG3 / RFU, DIAPH2 / Fold change vs veh, DIAPH2 / RFU, SKA2 / Fold change vs veh, SKA2 / RFU, AFF3 / Fold change vs veh, AFF3 / RFU, LMF1 / Fold change vs veh, LMF1 / RFU, IPO11 / Fold change vs veh, IPO11 / RFU, DFFB / Fold change vs veh, DFFB / RFU, FOXP1 / Fold change vs veh, FOXP1 / RFU, CARD8 / Fold change vs veh, CARD8 / RFU, STRN3 / Fold change vs veh, STRN3 / RFU, ADK / Fold change vs veh, ADK / RFU, RASSF2 / Fold change vs veh, RASSF2 / RFU, WIPF1 / Fold change vs veh, WIPF1 / RFU, LARP1B / Fold change vs veh, LARP1B / RFU, RASA1 / Fold change vs veh, RASA1 / RFU, RB1 / Fold change vs veh, RB1 / RFU, PPFIA1 / Fold change vs veh, PPFIA1 / RFU, MAT2A / Fold change vs veh, MAT2A / RFU, CCT5 / Fold change vs veh, CCT5 / RFU, WDR92 / Fold change vs veh, WDR92 / RFU, CUX1 / Fold change vs veh, CUX1 / RFU, TTC7A / Fold change vs veh, TTC7A / RFU, TMEM135 / Fold change vs veh, TMEM135 / RFU, DEPTOR / Fold change vs veh, DEPTOR / RFU, CPM / Fold change vs veh, CPM / RFU, DNAJB6 / Fold change vs veh, DNAJB6 / RFU, CACNA2D3 / Fold change vs veh, CACNA2D3 / RFU, DTX4 / Fold change vs veh, DTX4 / RFU, TFCP2 / Fold change vs veh, TFCP2 / RFU, GMCL1 /// GMCL1P1 / Fold change vs veh, GMCL1 /// GMCL1P1 / RFU, AEBP2 / Fold change vs veh, AEBP2 / RFU, SNHG1 /// SNORD22 /// SNORD25 /// SNORD26 /// SNORD27 /// SNORD28 /// SNORD29 /// SNORD31 / Fold change vs veh, SNHG1 /// SNORD22 /// SNORD25 /// SNORD26 /// SNORD27 /// SNORD28 /// SNORD29 /// SNORD31 / Fold change (Aza/veh), C12orf56 (ProbeSet 11735607_a_at) / Fold change (ACY-1035/veh), C12orf56 (ProbeSet 11735607_a_at) / Fold change (Aza/veh), FGFR1OP (ProbeSet 11751329_s_at) / Fold change (ACY-1035/veh), FGFR1OP (ProbeSet 11751329_s_at) / Fold change (Aza/veh), VPS36 (ProbeSet 11739960_a_at) / Fold change (ACY-1035/veh), VPS36 (ProbeSet 11739960_a_at) / RFU SYPL1 (11715823_x_at) / Fold change /veh SYPL1 (11715823_x_at) / RFU IGFBP7 (11715501_s_at) / Fold change /veh IGFBP7 (11715501_s_at) / RFU REEP3 (11722064_at) / Fold change /veh REEP3 (11722064_at) / RFU IGLL1 (11728026_x_at) / Fold change /veh IGLL1 (11728026_x_at): dose or concentration left out as unconfirmed
Details: MV-4-11 cells, 48 hours

## Nc1ncn([C@@H]2O[C@H](CO)[C@@H](O)[C@H]2O)c(=O)n1 [azacitidine]
  Fold change /veh ORM1 (11744905_x_at): 1.26

From paper PMC5218480 (PLoS ONE, 2017)
